Experimental data published in PubChem BioAssay (NCI).
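Results reflect a 48-hour exposure of cells in 96-well plates to compound at five concentrations. The concentration for 50% growth inhibition is given as GI50. TGI denotes the concentration required for complete inhibition of growth.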

How the values were obtained:
Test in all cases: NCI tumour cell line growth inhibition, 48 h
786-0 renal = system: 786-0 renal
A498 renal = system: A498 renal
A549 NSCLC = system: A549 NSCLC
ACHN renal = system: ACHN renal
BT-549 breast = system: BT-549 breast
CAKI-1 renal = system: CAKI-1 renal
CCRF-CEM leukemia = system: CCRF-CEM leukemia
COLO 205 colon = system: COLO 205 colon
DU-145 prostate = system: DU-145 prostate
EKVX NSCLC = system: EKVX NSCLC
HCC-2998 colon = system: HCC-2998 colon
HCT-116 colon = system: HCT-116 colon
HCT-15 colon = system: HCT-15 colon
HL-60(TB) leukemia = system: HL-60(TB) leukemia
HOP-62 NSCLC = system: HOP-62 NSCLC
HOP-92 NSCLC = system: HOP-92 NSCLC
HS 578T breast = system: HS 578T breast
HT29 colon = system: HT29 colon
IGROV1 ovarian = system: IGROV1 ovarian
K-562 leukemia = system: K-562 leukemia
KM12 colon = system: KM12 colon
LOX IMVI melanoma = system: LOX IMVI melanoma
M14 melanoma = system: M14 melanoma
MALME-3M melanoma = system: MALME-3M melanoma
MCF7 breast = system: MCF7 breast
MDA-MB-231 breast = system: MDA-MB-231 breast
MDA-MB-435 = system: MDA-MB-435
MOLT-4 leukemia = system: MOLT-4 leukemia
NCI-H226 lung = system: NCI-H226 lung

`CC(=C(c1ccc(OCCN(C)C)cc1)c1ccc(OCCN(C)C)cc1)c1ccc(Cl)cc1` was tested, and the GI50 (786-0 renal) was 0.591 µM, the TGI (786-0 renal) was 1.16 µM and the GI50 (A498 renal) was 3.2 µM. It also gave a TGI (A498 renal) of 7.81 µM, a GI50 (A549 NSCLC) of 1.04 µM and a TGI (A549 NSCLC) of 4.14 µM. For the same compound, the GI50 (ACHN renal) was 0.709 µM, the TGI (ACHN renal) was 1.57 µM and the GI50 (BT-549 breast) was 3.17 µM. The TGI (BT-549 breast) was 7.78 µM, the GI50 (CAKI-1 renal) was 0.652 µM and the TGI (CAKI-1 renal) was 1.69 µM. The GI50 (CCRF-CEM leukemia) was 0.657 µM, the TGI (CCRF-CEM leukemia) was 1.84 µM and the GI50 (COLO 205 colon) was 0.621 µM. The TGI (COLO 205 colon) was 1.27 µM, the GI50 (DU-145 prostate) was 1.38 µM and the TGI (DU-145 prostate) was 4.9 µM. The GI50 (EKVX NSCLC) was 1.66 µM, the TGI (EKVX NSCLC) was 6.11 µM and the GI50 (HCC-2998 colon) was 0.617 µM. The TGI (HCC-2998 colon) was 1.31 µM, the GI50 (HCT-116 colon) was 0.544 µM and the TGI (HCT-116 colon) was 1.11 µM. The GI50 (HCT-15 colon) was 0.625 µM, the TGI (HCT-15 colon) was 1.36 µM and the GI50 (HL-60(TB) leukemia) was 0.708 µM. For the same compound, the TGI (HL-60(TB) leukemia) was 1.64 µM, the GI50 (HOP-62 NSCLC) was 3.3 µM and the TGI (HOP-62 NSCLC) was 8.16 µM. For the same compound, the GI50 (HOP-92 NSCLC) was 0.74 µM, the TGI (HOP-92 NSCLC) was 3.04 µM and the GI50 (HS 578T breast) was 1.37 µM. It also gave a TGI (HS 578T breast) of 5.14 µM, a GI50 (HT29 colon) of 0.615 µM and a TGI (HT29 colon) of 1.49 µM. For the same compound, the GI50 (IGROV1 ovarian) was 0.826 µM, the TGI (IGROV1 ovarian) was 2.22 µM and the GI50 (K-562 leukemia) was 0.77 µM. For the same compound, the TGI (K-562 leukemia) was 7.71 µM, the GI50 (KM12 colon) was 1.45 µM and the TGI (KM12 colon) was 3.56 µM. The GI50 (LOX IMVI melanoma) was 0.542 µM, the TGI (LOX IMVI melanoma) was 1.03 µM and the GI50 (M14 melanoma) was 0.614 µM. The TGI (M14 melanoma) was 1.24 µM, the GI50 (MALME-3M melanoma) was 0.57 µM and the TGI (MALME-3M melanoma) was 1.08 µM. For the same compound, the GI50 (MCF7 breast) was 0.508 µM, the TGI (MCF7 breast) was 1.02 µM and the GI50 (MDA-MB-231 breast) was 0.687 µM. It also gave a TGI (MDA-MB-231 breast) of 1.56 µM, a GI50 (MDA-MB-435) of 0.577 µM and a TGI (MDA-MB-435) of 1.12 µM. The GI50 (MOLT-4 leukemia) was 0.713 µM, the TGI (MOLT-4 leukemia) was 1.81 µM and the GI50 (NCI-H226 lung) was 4.44 µM. For the same compound, the TGI (NCI-H226 lung) was 10 µM.
